“Also recorded” adds a separate entry of the source. Numbered stars: 1 amine (or outer) side, 2 acyl side, 3 side chain; on linkers, the order of the positions; unused ones are H or OH. Peptide text beside a SMILES is read from it. * marks the point of attachment. X1 = Brc1ccc2c(c1)-c1cc(N*)ccc1C2; Suc = O=C(CCC(=O)[*:2])[*:1]
Tests used:
[1] = system: Macrosiphum rosae; assay: Desiccation/starvation tolerance assay after peptide microinjection; assay type: in vivo; details: for Reduction of LTime50 relative to control / Reduction of median survival relative to control: M. rosae, desiccation/starvation stress; for Documented effect on desiccation/starvation mortality / LTime50 (h), test / Median IQR survival (h), test: Macrosiphum rosae, microinjection; for Documented effect on desiccation/starvation mortality: final concentration ×10^−5 M, relative to vehicle control; for LTime50 (h), test / Median IQR survival (h), test: ×10^−5 M, desiccation and starvation stress, test group
Protocol: (§1) Neuropeptides were administered to test aphids via microinjection to allow for rapid mass screening of neuropeptide analogue efficacy. For this, native neuropeptides were diluted in double distilled water (DDH2O) to a concentration of 1×10^−5 M. Neuropeptide analogues were diluted in DDH2O to the following concentrations: kinin analogues 1728 (2.5×10^−5 M), 2139 (3.5×10^−5 M), 2139-Ac (3.5×10^−5 M); CAP2b analogues 1895 (3.5×10^−5 M), 1896 (3.5×10^−5 M), 1902 (3.5×10^−5 M), 2089 (3.9×10^−5 M), 2123 (1.0×10^−5 M), 2125 (1.0×10^−5 M), 2129 (2.0×10^−5 M). Once at the desired concentration, neuropeptide solutions were administered to test aphids at an injection volume of 9 nl based on total haemolymph volume, to produce an approximate 1:20 dilution of injection volume to haemolymph. Injections were performed using a pulled glass needle and a Nanoject II Auto-Nanoliter Injector (Drummond Scientific Company, Broomall, Pa.). A vehicle control was set up for each treatment/day of experiments to account for variation in needle pulling. For this, control aphids were injected with 9 nl of DDH2O and subsequently exposed to the same experiments as aphids receiving the neuropeptide treatment. Neuropeptide treated and vehicle control aphids were subsequently used in the stress bioassays detailed below.
(§2) Anholocyclic adults of mixed age of either M. persicae or M. rosae were selected from the stock cultures and treated with a native neuropeptide or neuropeptide analogue via microinjection using the method detailed above. Treated and vehicle control aphids were allowed to recover on excised leaves of the host plant for 1 h before being placed in an empty ventilated microcage (L=4 cm, 0=9.5 cm) at densities of 10 per cage. In total, 30-40 aphids were treated for each neuropeptide treatment group and a further 30-40 for the associated vehicle control group. From the point of placement in the microcage (taken as 0 h), aphid survival was checked every hour during daylight hours and approximately every 4 h during night-time hours until the final aphid died. Survival data were subsequently analysed using a Log-rank (Mantel-Cox) text in GraphPad Prism version 7.0. LTime50 (the time taken to kill 50% of the test population) values were calculated via Probit Analysis in Minitab 17 (Minitab Inc., State College, Pa.).

[2] = system: Myzus persicae; assay: as above; assay type: in vivo; details: for Reduction of LTime50 relative to control / Reduction of median survival relative to control: M. persicae, desiccation/starvation stress; for Documented effect on desiccation/starvation mortality / LTime50 (h), test / Median ± IQR survival (h), test: Myzus persicae, microinjection; for Documented effect on desiccation/starvation mortality: final concentration ×10^−5 M, relative to vehicle control; for LTime50 (h), test / Median ± IQR survival (h), test: ×10^−5 M, desiccation and starvation stress, test group
Protocol: as §1, §2

[3] = system: Aphids; assay: Feeding with peptides in artificial diet, mortality without other stress; assay type: in vivo, Myzus persicae; details: ingestion via artificial diet
Protocol: A standard artificial diet for M. persicae was produced as described in Van Emden (2009) and provided the basal diet to which neuropeptide analogues were added for screening purposes. Neuropeptide analogues were diluted individually in the artificial diet to a pre-determined recommended concentration as follows: 1895 (3.5×10^−5 M) and 2019 (2.0×10^−5 M).
Feeding apparatus were constructed using a set-up developed by Sadeghi et al (2009). For this, a piece of Parafilm was stretched over a Plexiglas ring (h=4 cm, Ø=3 cm) and 100 μl of the artificial diet containing the desired neuropeptide analogue was pipette onto the Parafilm membrane. A second piece of Parafilm, stretched to 4 times the original thickness, was stretched over the original layer, sandwiching the artificial diet between two layers of Parafilm. A strip of Parafilm was wrapped around the circumference of the Plexiglas ring, sealing in the diet. A plastic ring (h=1.2 cm, Ø=3.4 cm) was subsequently placed over the Parafilm layer, creating a walled chamber in which to house test aphids in contact with the Parafilm layer containing the artificial diet. Finally, a small Petri dish (h=1 cm, Ø=3.6 cm), modified for ventilation with net cloth, was placed on top of each feeding apparatus to prevent aphid escape.
To obtain aphids for use in experiments, reproducing anholocyclic adults were placed on individual excised leaves of Chinese cabbage at densities of 5 adults per leaf and allowed to reproduce for 24 h. The stem of each excised leaf was held within a 0.5 mL Eppendorf tube containing water via a punctured hole in the Eppendorf lid, and placed individually within a microcage (L=4 cm, Ø=9.5 cm). Following 24 h, adults were removed and resultant first instar nymphs (<1 day old and synchronised in age to within 24 h) retained. Nymphs were allowed to develop on the Chinese cabbage for 5 days. On day 5, (3rd instar) nymphs were transferred onto the artificial diet containing a neuropeptide analogue at densities of 1 per feeding chamber and monitored daily until death. Aphids were transferred to fresh artificial diet (containing neuropeptide analogue) every 5 days. Life history traits recorded include age at first reproduction, number of nymphs produced per 24 h period, and lifespan. From these parameters, lifetime fecundity and daily fecundity were calculated. Control groups were set up involving aphids reared on the host plant, an artificial diet without a neuropeptide analogue, and an artificial diet containing the native CAPA neuropeptide.
Aphids were reared on artificial diet, alone or supplemented with peptide 2129, 2315, 2316 or 2320. A control group (no test peptide) was reared on a host plant. No other stress conditions were applied.
For peptides 2315, 2316 and 2320, mortality was assessed at 48, 72, 96, 120 and 144 hours. A group of 9 or 10 insects was used for each time point, and all experiments were performed at least 4 times.

Compound	Reduction of LTime50 relative to control [1] [h]	Reduction of median survival relative to control [1] [h]	Documented effect on desiccation/starvation mortality [1]	LTime50 (h), test [1]	Median IQR survival (h), test [1]	Reduction of LTime50 relative to control [2] [h]	Reduction of median survival relative to control [2] [h]	Documented effect on desiccation/starvation mortality [2]	LTime50 (h), test [2]	Median ± IQR survival (h), test [2]	change in mortality relative to the control ([3]; after 24 h) [%]	percentage survival ([3]; after 24 h) [%]	effect on aphid longevity ([3]; after the first 24 h)
CC[C@H](C)[C@H](NC(=O)[C@H](CCCNC(=N)N)NC(=O)[C@@H]1CCCN1C(=O)[C@@H](NC(=O)[C@H](C)NC(=O)CCC(=O)Nc1ccc2c(c1)-c1cc(Br)ccc1C2)[C@@H](C)O)C(N)=O [compound 2129, 2Abf-Suc-ATPRI-NH2] ({X1-Suc}-ATPRI-NH2)	11.6	12.8	significantly increase mortality relative to the control; also recorded: significantly increased desiccation/starvation mortality; also recorded: Increases	24.3 | 12.7 h	23.8 ± 20.5 | 11.0 ± 13.0 h	7.1	9.8	significantly increase mortality relative to the control; also recorded: significantly increased desiccation/starvation mortality; also recorded: Increases	15.9 | 8.8 h	17.8 ± 12.0 | 8.0 ± 17.0 h	19.7	73.8	highly significant reduction in aphid longevity
2Abf-Suc-FGPRL-NH2 [compound 1895]	9.6	10.5	significantly increase mortality relative to the control; also recorded: significantly increased desiccation/starvation mortality; also recorded: Increases	18.7 | 9.1 h	17.5 ± 19.5 | 7.0 ± 12.5 h	3.5	4.0	significantly increase mortality relative to the control; also recorded: significantly increased desiccation/starvation mortality; also recorded: Increases	15.9 | 12.4 h	17.8 ± 12.0 | 13.8 ± 11.8 h			

— patent publication US20220039395A1, “INSECT CONTROL AGENTS” (priority 2018, published 2022)
